Tests used:
Conditions in all cases: in the presence of a fixed amount (8 μg/mL) of Ceftazidime; CAMHB, 16-20 hours at 37° C.
[1] = test system: E. cloacae expressing the Class C P99+; format: cell-based
Text: (§1) To determine the ability of test compounds to potentiate the inhibition of the growth of bacterial strains producing beta-lactamase enzymes, classic cell based screening assays were employed. Four bacteria strains producing beta-lactamase enzymes were used: K. pneumoniae expressing the Class A Extended Spectrum Beta-Lactamase (ESBL) CTX-M-15, E. coli expressing the Class A ESBL SHV-5, E. cloacae expressing the Class C P99+, and K. pneumoniae expressing the Class A carbapenemase KPC-2. In order to evaluate the ability of test compounds to inhibit beta-lactamase activity, Applicants used a modification of the broth microdilution assay. The assay was conducted in Cation Adjusted Mueller Hinton Broth (CAMHB, BD #212322, BD Diagnostic Systems, Sparks, Md.). Bacteria strains were grown for 3-5 hours in CAMBH broth. All four strains were grown in presence of 50 μg/mL ampicillin to ensure resistance is maintained. In the meantime, test compounds were diluted in DMSO to a 0.1 mg/mL stock. The compounds were added to a microtiter plate and were diluted in 2-fold serial dilutions in CAMHB in a final concentration range of 8 μg/mL to 0.015 μg/ml. An overlay of CAMHB containing a cephalosporin was added to the compounds at a final static concentration of 8 μg/ml. […] Each of these compound plates are made in quadruplicate, one for each bacteria strain. In addition to the titration of test compounds the MICs of a panel of cephalosporins is also tested to ensure the strains are behaving consistently from test to test. Once the test compound and cephalosporin are added the plates can be inoculated. Inocula are conducted according to CLSI broth microdilution method. After inoculation the plates are incubated for 16-20 hours at 37° C. then the Minimal Inhibitory Concentration (MIC) of the test compound is determined visually.
(§2) Using the methodology described above, examples of the current invention were evaluated for their ability to inhibit the growth of β-lactamase producing bacteria in the presence of a β-lactam antibiotic. […] NT=Not Tested.

[2] = test system: K. pneumoniae expressing the Class A carbapenemase KPC-2
Text: as §1, §2

[3] = test system: K. pneumoniae expressing the Class A Extended Spectrum Beta-Lactamase (ESBL) CTX-M-15; format: cell-based
Text: as §1, §2

SMILES | MIC of example compound, E. cloacae P99 AmpC + 8 μg/mL CAZ [1] | MIC of example compound, K. pneumoniae KPC-2 + 8 μg/mL CAZ [2] | MIC of example compound, K. pneumoniae CTX-M-15 + 8 μg/mL CAZ [3]
O=C(Cc1cccs1)N[C@@H](Cc1ccc(C(=O)O)cc1O)B(O)O [Example 2, (1R)-1-(2-thiophene-2-yl-acetylamino)-2-(2-hydroxy-4-carboxyphenyl)ethyl-1-boronic acid] | A (A represents an MIC>8 μg/mL) | – | –
O=C(Cc1cccc(O)c1)N[C@@H](Cc1cccc(C(=O)O)c1O)B(O)O [Example 3, (1R)-1-(3-hydroxy-phenyl)acetylamino-1-(3-carboxy-2-hydroxy)benzyl-methyl boronic acid] | – | C (C represents an MIC of <1 μg/mL) | C (C represents an MIC of <1 μg/mL)
O=C(CCC(=O)c1cccs1)N[C@@H](Cc1cccc(C(=O)O)c1O)B(O)O [Example 5, (1R)-1-(4-oxo-4-thiophen-2-yl-butyrylamino)-2-(2-hydroxy-3-carboxyphenyl)ethyl-1-boronic acid] | C (C represents an MIC of <1 μg/mL) | C (C represents an MIC of <1 μg/mL) | C (C represents an MIC of <1 μg/mL)
CC(=O)N[C@@H](Cc1cccc(C(=O)O)c1O)B(O)O [Example 6, (1R)-1-(2-acetylamino)-2-(2-hydroxy-3-carboxyphenyl)ethyl-1-boronic acid] | – | C (C represents an MIC of <1 μg/mL) | C (C represents an MIC of <1 μg/mL)
NC(=O)COc1cccc(CC(=O)N[C@@H](Cc2cccc(C(=O)O)c2O)B(O)O)c1 [Example 8, (1R)-1-[(3-carbamoylmethoxy)-phenyl]-acetylamino-(3-carboxy-2-hydroxy)benzyl-methylboronic acid] | – | C (C represents an MIC of <1 μg/mL) | C (C represents an MIC of <1 μg/mL)
N[C@H](C(=O)N[C@@H](Cc1cccc(C(=O)O)c1O)B(O)O)c1ccccc1.O=CO [Example 12, (1R,2′S)-1-(2-amino-2-phenylacetylamino)-2-(2-hydroxy-3-carboxyphenyl)ethyl-1-boronic acid formate salt] | – | C (C represents an MIC of <1 μg/mL) | C (C represents an MIC of <1 μg/mL)
O=C(Cc1cc(O)ccc1O)N[C@@H](Cc1cccc(C(=O)O)c1O)B(O)O [Example 18, (1R)-1-(2-(2,5-dihydroxyphenyl)acetylamino)-2-(2-hydroxy-3-carboxyphenyl)ethyl-1-boronic acid] | – | – | C (C represents an MIC of <1 μg/mL)
O=C(COCc1ccccc1)N[C@@H](Cc1cccc(C(=O)O)c1O)B(O)O [Example 22, (1R)-1-(2-benzyloxyacetylamino)-2-(2-hydroxy-3-carboxyphenyl)ethyl-1-boronic acid] | – | C (C represents an MIC of <1 μg/mL) | C (C represents an MIC of <1 μg/mL)
CCCCCCC(=O)N[C@@H](Cc1cccc(C(=O)O)c1O)B(O)O [Example 24, (1R)-1-(heptanoylamino)-2-(2-hydroxy-3-carboxyphenyl)ethyl-1-boronic acid] | – | C (C represents an MIC of <1 μg/mL) | C (C represents an MIC of <1 μg/mL)
CC(C)(C)CC(=O)N[C@@H](Cc1cccc(C(=O)O)c1O)B(O)O [Example 25, (1R)-1-(3,3-Dimethyl-butyrylamino)-(3-carboxy-2-hydroxy)benzyl-methylboronic acid] | – | C (C represents an MIC of <1 μg/mL) | C (C represents an MIC of <1 μg/mL)
O=C(O)c1cccc(C[C@H](NC(=O)c2cccc3ccccc23)B(O)O)c1O [Example 27, (1R)-1-(1-naphthoylamino)-2-(2-hydroxy-3-carboxyphenyl)ethyl-1-boronic acid] | – | C (C represents an MIC of <1 μg/mL) | –
O=C(N[C@@H](Cc1cccc(C(=O)O)c1O)B(O)O)c1cccc(O)c1 [Example 28, (1R)-1-(3-hydroxybenzoylamino)-2-(2-hydroxy-3-carboxyphenyl)ethyl-1-boronic acid] | – | C (C represents an MIC of <1 μg/mL) | C (C represents an MIC of <1 μg/mL)
Cc1ccccc1C(=O)N[C@@H](Cc1cccc(C(=O)O)c1O)B(O)O [Example 30, (1R)-1-(2-methylbenzoylamino)-2-(2-hydroxy-3-carboxyphenyl)ethyl-1-boronic acid] | – | C (C represents an MIC of <1 μg/mL) | –
O=C(N[C@@H](Cc1cccc(C(=O)O)c1O)B(O)O)c1ccc(Cl)nc1 [Example 31, (1R)-1-(6-Chloro-pyridine-3-carbonyl)-amino-1-(3-carboxy-2-hydroxy)benzyl-methylboronic acid] | – | C (C represents an MIC of <1 μg/mL) | C (C represents an MIC of <1 μg/mL)
O=C(N[C@@H](Cc1cccc(C(=O)O)c1O)B(O)O)c1ccc(Cl)cc1 [Example 32, (1R)-1-(4-Chloro-benzoyl)-amino-1-(3-carboxy-2-hydroxy)benzyl-methylboronic acid] | – | C (C represents an MIC of <1 μg/mL) | –
COc1ccc(C(=O)N[C@@H](Cc2cccc(C(=O)O)c2O)B(O)O)cc1 [Example 33, (1R)-1-(4-Methoxybenzoyl)-amino-1-(3-carboxy-2-hydroxy)benzyl-methylboronic acid] | – | C (C represents an MIC of <1 μg/mL) | –
O=C(N[C@@H](Cc1cccc(C(=O)O)c1O)B(O)O)c1ccccc1O [Example 35, (1R)-1-(2-hydroxybenzoylamino)-2-(2-hydroxy-3-carboxyphenyl)ethyl-1-boronic acid] | – | C (C represents an MIC of <1 μg/mL) | –
O=C(Cn1cccn1)N[C@@H](Cc1cccc(C(=O)O)c1O)B(O)O [Example 40, (1R)-1-(Pyrazol-1-yl-acetylamino)-2-(2-hydroxy-3-carboxyphenyl)ethyl-1-boronic acid] | – | C (C represents an MIC of <1 μg/mL) | C (C represents an MIC of <1 μg/mL)
NCc1cccc(C(=O)N[C@@H](Cc2cccc(C(=O)O)c2O)B(O)O)c1.O=CO [Example 42, (1R)-1-(3-aminomethyl)-benzoylamino-1-(3-carboxy-2-hydroxy)benzyl-methyl boronic acid formate] | C (C represents an MIC of <1 μg/mL) | C (C represents an MIC of <1 μg/mL) | –
O=C(CN1C(=O)c2ccccc2C1=O)N[C@@H](Cc1cccc(C(=O)O)c1O)B(O)O [Example 45, (1R)-1-(2-(1,3-dioxoisoindolin-2-yl)acetylamino)-2-(2-hydroxy-3-carboxyphenyl)ethyl-1-boronic acid] | – | C (C represents an MIC of <1 μg/mL) | –

— patent publication US20100286092A1, “BETA-LACTAMASE INHIBITORS” (priority 2007, published 2010)
